Results from patent US20040038369A1, “Airway-specific trypsin-like enzymes and method of using the same” (priority 2000, published 2004).

What was measured:
EGFR = experiment: Tyrosine phosphorylation of EGFR in NCI-H292 cells; format: cell-based, human; details: HAST 0.3 U/mL, 30 to 240 minutes
Protocol: NCI-H292 cells (purchased from ATCC) were suspended in 10% FCS-containing RPMI-1640 (produced by Gibco Corp.) and then sowed on a 12 well plate (made by Falcon Corp.) in a density of 6.0×10^4 cells/cm^2. The cells were cultured for 72 hours, subjected to the replacement of the culture medium by 0.1% BSA-containing RPMI-1640, and further cultured for 24 hours.
On the day of the treatment, the culture solution of the wells was replaced by RPMI-1640 (containing 0.1% BSA) containing HAST (0.3 U/mL), EGF (1 μg/mL), and the treatments were carried out for 30, 60, 120, 180, 240 minutes, respectively.
The cells treated with the HAST or the EGF for the prescribed time were twice washed with ice-cooled PBS, mixed with 500 μL of an ice-cooled Lysis buffer solution (50 mM Tris-HCl, pH 7.4, 5 mM EDTA, 1% Triton X-100 (Sigma), 150 mM NaCl, 10% glycerol, 1% Protease inhibitor Cocktail (Sigma), 1% Phosphatase Inhibitor Cocktail (Sigma)), allowed to stand on ice for 15 minutes, and then recovered in a micro tube. The recovered product in the micro tube was centrifuged at 15,000 rpm at 4° C. for 10 minutes, and the supernatant was recovered as a sample. The protein concentration of the sample was assayed with BioRad Protein Assay (produced by Bio Rad Corp.), and properly diluted with the Lysis buffer solution so that the protein concentrations in all the samples become 1.48 mg/mL. […]

[1] = Enzymatic activity of mammalian ASTs transiently expressed in 293 EBNA cells; format: biochemical
Protocol: A forward primer and a reverse primer were prepared on gene sequences encoding the N-terminal and C-terminal of each mammalian AST, and a cDNA encoding the full-length AST was prepared by a PCR amplification using the forward primer, the reverse primer, Pyrobest DNA polymerase (produced by Takara Shuzo Co.), and an airway cDNA as a template. On the other hand, a product obtained by cleaving pcDNA3 (produced by Invitrogen Corp.) with restriction enzymes NruI and KpnI, and the promoter domain of Elongation Factor-1a (EF-1 a) from human genome were amplified by a PCR using a forward primer: […] and a reverse primer: […]. […]
Human fetal kidney-originated 293 EBNA cells (Invitrogen Corp.) were cultured in a 10 cm schale, and the about 5.8×10^6 cells were transfected with 28 μg of each expression plasmid prepared in (1) in 56 μL of LipofectAMINE 2000 (produced by GibcoBRL Corp.) according to an appended manual. […] 40 μL of the above-described assay sample was mixed with 20 μL of a synthetic substrate solution (a solution obtained by diluting a 10 mM Boc-Phe-Ser-Arg-MCA DMSO (dimethyl sulfoxide) solution with the buffer solution for the AST activity assay 50 times), and the increase of the fluorescence intensity per minute was assayed (fluorescence wavelength: 460 nm, excitation wavelength: 380 nm) to determine the enzymatic activity.

In the case of “HAST: human airway-specific trypsin-like enzyme; propeptide moiety bound to trypsin-like protein moiety via a disulfide bond”, the “tyrosine phosphorylation of EGFR” value (EGFR) is reported as “activated EGFR”, the “Cell lysate Fluorescence intensity ratio (Human:100)” value ([1]; 293 EBNA cell lysate, three days after transfection) is reported as 100 and the “Sup Fluorescence intensity ratio (Human:100)” value ([1]; 293 EBNA, Sup) is reported as 100.
